“Also recorded” adds a separate entry of the source. Read-outs that look alike come from different tables or passages of the source.
Legend:
[1] = biological target: T1, dihydropyrimidinase from P. aeruginosa PAO1 (Pseudomonas aeruginosa, UniProt Q9I676); test: Spectrophotometric enzyme assay: inhibition of dihydropyrimidinase; type: biochemical; details: for Inhibitory effect on dihydropyrimidinase activity: 5-propyl-hydantoin or dihydrouracil as substrate
Protocol: (§1) A rapid spectrophotometric assay was used to determine the enzymatic activity according to a previously described protocol for hydantoinase, allantoinase, dihydroorotase, and imidase. Dihydrouracil, 5-propyl-hydantoin, and phthalimide were used as substrates. Unless explicitly stated otherwise, dihydrouracil (2 mM) was used as the substrate in the standard assay of dihydropyrimidinase. Briefly, the decrease in absorbancy at 230, 248, and 298 nm was measured upon hydrolysis of dihydrouracil, 5-propyl-hydantoin, and phthalimide as the substrate at 25°C, respectively. To start the reaction, the purified dihydropyrimidinase (10–70 μg) was added to a 2 mL solution containing the substrate and 100 mM Tris–HCl (pH 8.0). Substrate hydrolysis was monitored with a UV/vis spectrophotometer (Hitachi U 3300, Hitachi High-Technologies, Tokyo, Japan). The extinction coefficient of each substrate was determined experimentally by direct measurement with a spectrophotometer. The extinction coefficients of dihydrouracil, 5-propyl-hydantoin, and phthalimide were 0.683 mM^-1cm^-1 at 230 nm, 0.0538 mM^-1cm^-1 at 248 nm, and 3.12 mM^-1cm^-1 at 298 nm, respectively. The initial rates of change were a function of enzyme concentration within the absorbance range of 0.01–0.18 min^-1. A unit of activity was defined as the amount of enzyme catalyzing the hydrolysis of 1 μmol substrate/min, and the specific activity was expressed in terms of units of activity per milligram of enzyme. The kinetic parameters K m and V max were determined from a non-linear plot by fitting the hydrolyzing rate from individual experiments to the Michaelis–Menten equation (Enzyme Kinetics module of Sigma-Plot; Systat Software, Chicago, IL, USA).

[2] = biological target: P. aeruginosa dihydropyrimidinase (Pseudomonas aeruginosa, UniProt Q9I676); test: Fluorescence quenching of wild-type dihydropyrimidinase; type: binding; details: for Quenching of intrinsic fluorescence / Red shift in emission wavelength: wild-type enzyme; for Quenching of intrinsic fluorescence: 50 μM compound; for Red shift in emission wavelength: λmax from 333.5 nm
Protocol: (§2) The dissociation constants (K d) of dihydropyrimidinase was determined using the fluorescence quenching method as previously described for allantoinase, dihydroorotase, and DnaB helicase. An aliquot of each compound was added into the solution containing dihydropyrimidinase (0.8 μM), 50 mM HEPES at pH 7.0. The decrease in intrinsic fluorescence of protein was measured at 334.5 nm upon excitation at 279 nm and 25°C with a spectrofluorimeter (Hitachi F-2700; Hitachi High-Technologies, Tokyo, Japan). At least seven data points were used to calculate each K d. Each data point was an average of 2–3 determinants, and the difference of the determinants was within 10%. The K d was obtained by the equation: ΔF = ΔFmax-K d(ΔF/[compound]) (Enzyme Kinetics module of Sigma-Plot; Systat Software, Chicago, IL, USA).

[3] = biological target: N337A mutant of P. aeruginosa dihydropyrimidinase (Pseudomonas aeruginosa, UniProt Q9I676, N337A); test: Fluorescence quenching of the N337A mutant; type: binding, Pseudomonas aeruginosa PAO1; details: for Red shift in λmax: N337A mutant, from 333.5 nm
Protocol: The dihydropyrimidinase mutants (H59A, H61A, K150A, Y155A, H183A, H239A, S289A, D316A, and N337A) were generated according to the manufacturer’s protocol (Stratagene, LaJolla, CA). The presence of the mutation was verified by DNA sequencing in each construct.
as §2

[4] = biological target: T1, dihydropyrimidinase from P. aeruginosa PAO1; test: Substrate specificity / Michaelis-Menten kinetics of dihydropyrimidinase; type: biochemical; details: for Fold: V max/K m relative to dihydrouracil; for K m / V max / V max/K m: compound as substrate
Protocol: as §1

[5] = biological target: T1, dihydropyrimidinase from P. aeruginosa PAO1; type: biochemical
[6] = IC50, 5-propyl-hydantoin as substrate
[7] = IC50, dihydrouracil as substrate
[8] = metal ion 1 mM added to reaction mixture, enzyme purified without metal supplement, dihydrouracil substrate
[9] = specific activity relative to no metal added, metal ion 1 mM
[10] = substrate and inhibitor analogs of other cyclic amidohydrolases, read-out: IC50
[11] = 40 μM dihydromyricetin, dihydrouracil substrate

Sequence of N337A mutant of P. aeruginosa dihydropyrimidinase (Q9I676 whole entry N337A): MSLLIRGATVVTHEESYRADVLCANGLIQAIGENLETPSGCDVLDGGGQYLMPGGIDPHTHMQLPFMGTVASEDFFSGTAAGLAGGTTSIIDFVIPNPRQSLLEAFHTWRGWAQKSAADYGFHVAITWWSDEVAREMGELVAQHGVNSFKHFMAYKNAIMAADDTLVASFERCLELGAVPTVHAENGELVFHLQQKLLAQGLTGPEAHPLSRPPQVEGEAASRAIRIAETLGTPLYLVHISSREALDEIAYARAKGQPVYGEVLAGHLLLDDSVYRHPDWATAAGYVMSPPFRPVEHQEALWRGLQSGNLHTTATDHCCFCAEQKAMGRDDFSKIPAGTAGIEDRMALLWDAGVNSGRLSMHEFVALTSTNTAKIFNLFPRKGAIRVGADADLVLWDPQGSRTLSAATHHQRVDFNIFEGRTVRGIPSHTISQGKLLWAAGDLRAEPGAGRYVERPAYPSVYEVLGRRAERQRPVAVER
T1 sequence (Q9I676 whole entry): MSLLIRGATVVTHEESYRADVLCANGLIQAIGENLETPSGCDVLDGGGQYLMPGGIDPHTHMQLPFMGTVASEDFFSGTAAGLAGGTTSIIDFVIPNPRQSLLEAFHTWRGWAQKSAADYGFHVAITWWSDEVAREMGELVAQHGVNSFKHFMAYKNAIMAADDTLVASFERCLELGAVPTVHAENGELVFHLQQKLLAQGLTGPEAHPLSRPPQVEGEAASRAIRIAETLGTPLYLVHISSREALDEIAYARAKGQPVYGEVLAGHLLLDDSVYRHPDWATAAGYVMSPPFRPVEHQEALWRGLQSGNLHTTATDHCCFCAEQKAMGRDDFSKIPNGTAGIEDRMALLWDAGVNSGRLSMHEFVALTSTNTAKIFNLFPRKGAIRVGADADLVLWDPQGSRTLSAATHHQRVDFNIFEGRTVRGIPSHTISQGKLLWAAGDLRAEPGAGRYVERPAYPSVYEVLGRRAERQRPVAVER
Sequence of P. aeruginosa dihydropyrimidinase (Q9I676 whole entry): as above

Compound: O=c1c(O)c(-c2cc(O)c(O)c(O)c2)oc2cc(O)cc(O)c12 [myricetin]
- Inhibitory effect on dihydropyrimidinase activity [1]: strongly inhibit
- IC50 [1, 6]: 63 ± 3 µM
- IC50 [1, 7]: 83 ± 3 µM
- Inhibitory effect ([1]; dihydrouracil as substrate): significant
- Kd [2]: 28.8 ± 2.2 µM
- Quenching of intrinsic fluorescence [2]: 56.2%
- Red shift in emission wavelength [2]: ~ 7 nm
- Red shift in λmax [3]: ~ 7.5 nm

Compound: O=C1CCNC(=O)N1 [dihydrouracil]
- Fold [4]: 1.0
- K m [4]: 700 ± 100 µM
- V max [4]: 7.6 ± 0.4 µmol/mg/min
- V max/K m [4]: 10.9

Compound: [Cl][Cd][Cl] [CdCl2]
- Effect of metal addition on dihydropyrimidinase activity ([5]; 1 mM added to reaction mixture): not useful
- Specific activity [5, 8]: 0.74 ± 0.04 µmol/mg/min
- Fold [5, 9]: 0.9

Compound: O=C1CC(C(=O)O)NC(=O)N1 (centres unmarked) [dihydroorotate]
- IC50 range [1]: within the millimolar range
- Inhibitory effect on dihydropyrimidinase activity [1]: slightly inhibit; also recorded: only slightly inhibited
- IC50 [1, 10]: ~30000 µM
- K m [4]: Not hydrolyzed
- V max [4]: Not hydrolyzed

Compound: [Cl-].[Cl-].[Zn+2] [ZnCl2]
- Effect of metal addition on dihydropyrimidinase activity ([5]; 1 mM added to reaction mixture): activated
- Specific activity [5, 8]: 2.90 ± 0.10 µmol/mg/min
- Fold [5, 9]: 3.5

Compound: myricitrin
- Inhibitory effect on dihydropyrimidinase activity [1]: No effect

Compound: O=C1NC(=O)c2ccccc21 [phthalimide]
- Catalytic efficiency toward dihydrouracil higher than toward this substrate [4]: fourfold
- Fold [4]: 0.25
- K m [4]: 1000 ± 300 µM
- V max [4]: 2.7 ± 0.6 µmol/mg/min
- V max/K m [4]: 2.7

Compound: CC(=O)NO [acetohydroxamate]
- IC50 range [1]: within the millimolar range
- Inhibitory effect on dihydropyrimidinase activity [1]: only slightly inhibit

Compound: O=C(O)CC1NC(=O)NC1=O (centres unmarked) [5-hydantoin acetic acid]
- IC50 range [1]: within the millimolar range
- Inhibitory effect on dihydropyrimidinase activity [1]: only slightly inhibit
- IC50 [1, 10]: ~50000 µM

Compound: CCCC1NC(=O)NC1=O (centres unmarked) [5-propyl-hydantoin]
- Catalytic efficiency toward dihydrouracil higher than toward this substrate [4]: 100 fold
- Fold [4]: 0.01
- K m [4]: 8100 ± 1500 µM
- V max [4]: 1.2 ± 0.1 µmol/mg/min
- V max/K m [4]: 0.15

Compound: [Cl][Mn][Cl] [MnCl2]
- Effect of metal addition on dihydropyrimidinase activity ([5]; 1 mM added to reaction mixture): activated
- Specific activity [5, 8]: 1.72 ± 0.09 µmol/mg/min
- Fold [5, 9]: 2.1

Compound: [Cl-].[Cl-].[Mg+2] [MgCl2]
- Effect of metal addition on dihydropyrimidinase activity ([5]; 1 mM added to reaction mixture): not useful
- Specific activity [5, 8]: 0.82 ± 0.05 µmol/mg/min
- Fold [5, 9]: 1.0

Compound: [Cl][Ni][Cl] [NiCl2]
- Effect of metal addition on dihydropyrimidinase activity ([5]; 1 mM added to reaction mixture): not useful
- Specific activity [5, 8]: 0.91 ± 0.06 µmol/mg/min
- Fold [5, 9]: 1.1

Compound: O=c1c(O)c(-c2ccc(O)c(O)c2)oc2cc(O)cc(O)c12 [quercetin]
- Inhibitory effect on dihydropyrimidinase activity [1]: insignificant

Compound: [Cl-].[Cl-].[Co+2] [CoCl2]
- Effect of metal addition on dihydropyrimidinase activity [5]: activated
- Fold [5]: 7.1
- Specific activity [5]: 5.80 ± 0.16 µmol/mg/min
- Specific activity toward dihydrouracil [5]: 5.9 ± 0.4 µmol/mg/min

Compound: O=c1c(O)c(-c2ccc(O)cc2)oc2cc(O)cc(O)c12 [kaempferol]
- Inhibitory effect ([1]; 5-propyl-hydantoin as substrate): only slightly inhibited
- Inhibitory effect ([1]; dihydrouracil as substrate): significant
- IC50 ([1]; dihydrouracil as substrate, read-out: IC50): 50 ± 2 µM

Compound: [Ca+2].[Cl-].[Cl-] [CaCl2]
- Effect of metal addition on dihydropyrimidinase activity ([5]; 1 mM added to reaction mixture): not useful
- Specific activity [5, 8]: 0.82 ± 0.05 µmol/mg/min
- Fold [5, 9]: 1.0

Compound: O=C(O)c1cc(=O)[nH]c(=O)[nH]1 [orotic acid]
- IC50 range [1]: within the millimolar range
- Inhibitory effect on dihydropyrimidinase activity [1]: slightly inhibit

Compound: Nc1nc[nH]n1 [3-amino-1,2,4-triazole]
- Concentration that affected enzyme activity [1]: 100 to 750 mM
- IC50 range [1]: within the millimolar range
- Inhibitory effect on dihydropyrimidinase activity [1]: slightly inhibit

Compound: O=C1c2c(O)cc(O)cc2O[C@H](c2cc(O)c(O)c(O)c2)[C@H]1O [dihydromyricetin]
- Inhibition stronger than the substrate analogs [1]: > 3 orders of magnitude
- K m in the presence of inhibitor [1, 11]: 1600 ± 200 µM
- V max in the presence of inhibitor [1, 11]: 5.4 ± 0.4 µmol/mg/min
- Type of inhibition (Lineweaver-Burk plot) ([1]; 40 μM inhibitor, different concentrations of dihydrouracil): competitive inhibitor
- Inhibitory effect on dihydropyrimidinase activity [1]: significant inhibitory effect
- IC50 [1, 6]: 40 µM
- IC50 [1, 7]: 48 µM
- Kd [2]: 22.6 µM
- Quenching of intrinsic fluorescence [2]: 89.1%
- Red shift in emission wavelength [2]: ~ 25 nm
- Kd [3]: 24.1 ± 1.7 µM
- Red shift in λmax [3]: ~ 23.5 nm

Compound: NC(=O)NC1NC(=O)NC1=O (centres unmarked) [allantoin]
- IC50 range [1]: within the millimolar range
- Inhibitory effect on dihydropyrimidinase activity [1]: slightly inhibit; also recorded: only slightly inhibited
- K m [4]: Not hydrolyzed
- V max [4]: Not hydrolyzed
